In PubChem BioAssay (NCI):
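Results reflect a 48-hour exposure of cells in 96-well plates to compound at five concentrations. At the GI50, growth is halved. TGI marks complete inhibition of growth.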

Assays:
Assay in all cases: NCI tumour cell line growth inhibition, 48 h
[1] = system: UO-31 renal
[2] = system: MOLT-4 leukemia
[3] = system: U251 CNS
[4] = system: OVCAR-4 ovarian
[5] = system: IGROV1 ovarian
[6] = system: CCRF-CEM leukemia
[7] = system: HCT-15 colon
[8] = system: SN12C renal
[9] = system: HL-60(TB) leukemia
[10] = system: NCI-H23 lung

SMILES | GI50 [1] | TGI [1] | GI50 [2] | TGI [2] | GI50 [3] | TGI [3] | GI50 [4] | TGI [4] | GI50 [5] | TGI [5] | GI50 [6] | TGI [6] | GI50 [7] | TGI [7] | GI50 [8] | TGI [8] | GI50 [9] | TGI [9] | GI50 [10] | TGI [10]
Cc1sc2nc(NCCc3c[nH]c4ccc(Cl)cc34)[nH]c(=O)c2c1C | 1.22 µM | 2.77 µM | 2.22 µM | 7.27 µM | 2.26 µM | 6.94 µM | 3.27 µM | 13.4 µM | 3.12 µM | 13.1 µM | 2.63 µM | 14.2 µM | 1.52 µM | 11.2 µM | 2.38 µM | 6.59 µM | 2.34 µM | 5.91 µM | 2.39 µM | 6.22 µM
COc1ccc(-n2cc(-c3ccc(Cl)c(Cl)c3)nc2SCc2cccc(C#N)c2)cc1 | 35.2 µM | > 100 µM | 19.4 µM | > 100 µM | 26.8 µM | > 100 µM | 11.9 µM | > 100 µM | 4.77 µM | 28.3 µM | > 100 µM | > 100 µM | 42.8 µM | > 100 µM | 14 µM | 35.7 µM | > 100 µM | > 100 µM | 39.8 µM | > 100 µM
CCCCCCCCCc1cc(=O)c2c(O)cccc2o1 |  | > 100 µM |  | 89.5 µM |  | > 100 µM |  | > 100 µM |  | > 100 µM |  | > 100 µM |  | > 100 µM |  | > 100 µM |  | 93.9 µM |  | > 100 µM
O=C(N/N=C\c1cc(Br)ccc1O)c1ccncc1 | 1.76 µM | > 100 µM | 0.551 µM | 23.5 µM | 1.92 µM | 68.8 µM | 0.814 µM | 33.3 µM | 3.51 µM | > 100 µM | 0.423 µM | > 100 µM | 0.563 µM | > 100 µM | 4.63 µM | > 100 µM | 1.28 µM | 5.57 µM | 3.61 µM | > 100 µM
Nc1nc(Br)nc2c1ncn2C1CC(O)C(CO)O1 (stereo not drawn) | 1.3 µM | > 100 µM | 0.408 µM | > 100 µM | 11.4 µM | > 100 µM | > 100 µM | > 100 µM |  | > 69.4 µM | 0.204 µM | > 100 µM | > 63.9 µM | > 100 µM | 0.744 µM | > 100 µM | 0.0835 µM |  | 1.08 µM | > 100 µM
Fc1ccc(Nc2cc(-n3nnc4ccccc43)nc3ccccc23)cc1 | > 55.9 µM | > 100 µM | > 100 µM | > 100 µM | 27.6 µM | > 76.1 µM | 22.4 µM | > 80.4 µM | 63.9 µM | > 100 µM | > 100 µM | > 100 µM | > 100 µM | > 100 µM | 30 µM | > 69.3 µM | > 100 µM | > 100 µM | 49.2 µM | > 100 µM
O=C(O)c1c(-c2nccc3ccccc23)[nH]c(-c2ccccc2)c1S(=O)(=O)O |  | > 100 µM |  | > 100 µM |  | > 100 µM |  | > 100 µM |  | > 100 µM |  | > 100 µM |  | > 100 µM |  | > 100 µM |  | > 100 µM |  | > 100 µM
O=C(O)c1cc(O)c2c(c1)C(C1c3cc(C(=O)O)cc(O)c3C(=O)c3c(OC4OC(CO)C(O)C(O)C4O)cccc31)c1cccc(OC3OC(CO)C(O)C(O)C3O)c1C2=O (stereo not drawn) | > 100 µM | > 100 µM | > 100 µM | > 100 µM | > 100 µM | > 100 µM | > 100 µM | > 100 µM | > 100 µM | > 100 µM | > 100 µM | > 100 µM | > 100 µM | > 100 µM | > 100 µM | > 100 µM | > 100 µM | > 100 µM | > 100 µM | > 100 µM
CN(C)c1ccc2nc3ccc(=O)cc-3sc2c1 | 0.545 µM | > 74.5 µM | 1.4 µM | 26 µM | 0.72 µM | 32.2 µM | 1.41 µM | 36.5 µM | 2.48 µM | > 54.5 µM | 0.694 µM | 58.1 µM | 0.322 µM | > 86 µM | 0.865 µM | > 79 µM | 0.77 µM | 3.94 µM | 0.82 µM | > 100 µM
COc1ccc(/C=c2/sc3n(c2=O)C(c2ccc(OC)c(OC)c2)C2=C(N=3)c3cc(F)ccc3OC2)cc1 (stereo not drawn) | 27.6 µM | > 77.7 µM | > 22.7 µM | > 100 µM | 20.9 µM | > 78.5 µM | > 23.2 µM | > 74.1 µM | 9.71 µM | > 26.5 µM | > 55.7 µM | > 100 µM | 22.2 µM | > 83 µM | 3.45 µM | > 54.9 µM | 33.1 µM | > 94.6 µM | 3.69 µM | 26.1 µM
Cc1c[n+](Cc2ccc3ccccc3c2)cn1Cc1ccc2ccccc2c1 | 5.47 µM | 20.4 µM | 1.7 µM | 4.06 µM | 1.61 µM | 3.07 µM | 0.583 µM | 2.35 µM | 1.46 µM | 3.75 µM | 2.45 µM | 5.71 µM | 10.3 µM | 24.2 µM | 1.67 µM | 3.33 µM | 0.514 µM | 2.34 µM | 1.49 µM | 3.97 µM
O=c1[nH]c2cc(Cl)ccc2n1C1CCN(CCCC(c2ccc(F)cc2)c2ccc(F)cc2)CC1 | 1 µM | 2.38 µM | 2.43 µM | 7.15 µM | 1.54 µM | 2.87 µM | 1.51 µM | 2.9 µM | 1.98 µM | 3.87 µM | 2.31 µM | 6.98 µM | 1.45 µM | 2.76 µM | 1.78 µM | 3.27 µM | 2.97 µM | 14.7 µM | 1.74 µM | 3.43 µM
O=C1/C(=C\c2cccn2Cc2ccccc2)c2ccccc2N1c1c(Cl)cccc1Cl | 3.89 µM | > 100 µM | > 100 µM | > 100 µM | > 100 µM | > 100 µM | 0.196 µM | > 60.4 µM | 0.551 µM | > 100 µM | > 100 µM | > 100 µM | 0.885 µM | > 100 µM | > 100 µM | > 100 µM | > 100 µM | > 100 µM | > 63 µM | > 100 µM
CCOC(=O)N1CCN(C(=O)c2ccc(C(F)(F)F)nc2Nc2cc(Cl)ccc2C)CC1 | 7.82 µM | > 100 µM | 6.63 µM | 64.8 µM | 27.1 µM | > 100 µM | 11.8 µM | 55.1 µM | 1.38 µM | 59.7 µM | 18.9 µM | > 100 µM | 23.1 µM | > 100 µM | 36.8 µM | > 100 µM | 12.1 µM | 38 µM | 14.1 µM | 74.5 µM
CN(C)Cc1c[nH]c2c1C(=O)c1c(c(O)c3ccccc3c1O)C2=O | 8.6 µM | 29.5 µM | 3.42 µM | > 100 µM | 5.56 µM | 18.7 µM | 20.1 µM | 42.6 µM | 3.34 µM | 37.2 µM | 3.14 µM | 20.7 µM | 5.02 µM | 16.2 µM | 5.62 µM | 19.1 µM | 17.2 µM | 75.7 µM | 9.34 µM | 24.9 µM
O=C1CSC(Cc2nc3ccccc3[nH]2)=N1 |  | 35 µM |  | > 100 µM |  | 49 µM |  | 41.6 µM |  | > 58.7 µM |  | > 94 µM |  | 37.7 µM |  | 44.8 µM |  | 97.5 µM |  | 43.8 µM
CCN(CC)CCOc1ccc(/C(=C(\C)c2ccc(F)c(OC)c2)c2ccc(Cl)cc2)cc1 | 1.89 µM | 3.96 µM | 2.49 µM | 6.86 µM | 2.23 µM | 4.74 µM | 2.1 µM | 4.45 µM | 2.45 µM | 5.4 µM | 2.96 µM | 8.55 µM | 1.08 µM | 3.39 µM | 2.38 µM | 4.64 µM | 2.69 µM | 6.43 µM | 2.39 µM | 4.97 µM
Cc1ccc(N(CSc2ccc(Cl)cc2)CSc2ccc(Cl)cc2)cc1 | 0.717 µM | 2.75 µM | 0.381 µM | 2.63 µM | 0.581 µM | 11.2 µM | 2.78 µM | 31.4 µM | 0.481 µM | 5.87 µM | 0.246 µM | 2.5 µM | 2.12 µM | 15.3 µM | 0.501 µM | 14.5 µM | 1.65 µM | 3.65 µM | 2.27 µM | 10.5 µM
N#CC(/C(=N/NC(=O)C(=O)NN)C(=O)NC12CC3CC(CC(C3)C1)C2)c1ccccc1 (stereo not drawn) |  | > 100 µM |  | > 100 µM |  | > 100 µM |  | > 100 µM |  | > 100 µM |  | > 100 µM |  | > 100 µM |  | > 100 µM |  | > 100 µM |  | > 100 µM
COC(=O)/C=C/C1C(C(=O)OC)C2(C(=O)OC)CCC1(C(=O)OC)N2 (stereo not drawn) |  | > 100 µM |  | > 100 µM |  | > 100 µM |  | > 100 µM |  | > 100 µM |  | > 100 µM |  | > 100 µM |  | > 100 µM |  | > 100 µM |  | > 100 µM
